{"source": "patent US20190231802A1", "about": "“CHEMOTHERAPEUTIC-RELEASING IMPLANTABLE STICK, METHODS OF MANUFACTURE AND PRECURSOR MATERIALS” (The Johns Hopkins University, priority 2016, published 2019)", "origin": "cited, not measured here", "test_system": "selected cancer cell lines", "details": "compared to paclitaxel, topotecan, CPT-11, docetaxel, carboplatin and temozolomide; previous study [8]", "data": [{"smiles": "COc1cccc2c1C(=O)c1c(O)c3c(c(O)c1C2=O)C[C@@](O)(C(=O)CO)C[C@@H]3O[C@H]1C[C@H](N)[C@H](O)[C@H](C)O1", "note": "[Doxorubicin]", "values": [{"measurement": "IC50", "value": "relatively low IC50"}]}]}
